{"source": "patent US7745483B2", "about": "“2-Halofuryl-thienyl-3-carboxamides” (Bayer CropScience AG, priority 2004, dated 2010)", "data": [{"system": "not listed separately", "experiment": "logP determination by HPLC on a reverse-phase column (EEC Directive 79/831 Annex V.A8)", "assay_type": "physicochemical", "conditions": "pH 2.3, reverse-phase column (C 18), 43° C.", "method": "(§1) The logP values given were determined in accordance with EEC Directive 79/831 Annex V.A8 by HPLC (High Performance Liquid Chromatography) on a reverse-phase column (C 18). Temperature: 43° C. Mobile phases for the determination in the acidic range (pH 2.3): 0.1% aqueous phosphoric acid, acetonitrile; linear gradient from 10% acetonitrile to 90% acetonitrile. Calibration was carried out using unbranched alkan-2-ones (having 3 to 16 carbon atoms) with known logP values (determination of logP values by retention times using linear interpolation between two successive alkanones).", "values": [{"molecule": "O=C(Nc1ccccc1-c1ccc(Cl)c(Cl)c1)c1ccoc1I", "note": "[Example 10]", "logP": 3.89}, {"molecule": "CC(C)CC(C)c1ccccc1NC(=O)c1ccsc1Br", "note": "(stereo not shown) [Example 27]", "logP": 4.24}, {"molecule": "O=C(Nc1ccncc1-c1ccc(Cl)c(Cl)c1)c1ccsc1I", "note": "[Example 34]", "logP": 2.20}, {"molecule": "CC(C)(C)CCc1cc(F)ccc1NC(=O)c1ccsc1I", "note": "[Example 37]", "logP": 4.16}, {"molecule": "O=C(Nc1ccccc1-c1ccc(Cl)c(Cl)c1)c1ccsc1Br", "note": "[Example 30]", "logP": 4.25}, {"molecule": "CC(C[Si](C)(C)C)c1ccccc1NC(=O)c1ccoc1I", "note": "(stereo not shown) [Example 16]", "logP": 4.45}, {"molecule": "O=C(Nc1ccc(F)cc1-c1ccc(Cl)c(Cl)c1)c1ccsc1I", "note": "[Example 24]", "logP": 4.13}, {"molecule": "O=C(Nc1ccccc1-c1cccc(Cl)c1F)c1ccsc1I", "note": "[Example 33]", "logP": 3.67}, {"molecule": "CC(C[Si](C)(C)C)c1cc(F)ccc1NC(=O)c1ccsc1I", "note": "(stereo not shown) [Example 36]", "logP": 4.67}, {"molecule": "CC(C)(C)CCc1cc(F)ccc1NC(=O)c1ccsc1Br", "note": "[Example 44]", "logP": 4.30}, {"molecule": "O=C(Nc1ccccc1-c1ccc(Cl)c(Cl)c1)c1ccsc1I", "note": "[Example 13]", "logP": 4.11}, {"molecule": "C=C(CC(C)(C)C)c1ccccc1NC(=O)c1ccsc1I", "note": "[Example 14]", "logP": 4.78}, {"molecule": "O=C(Nc1ccccc1-c1cccc(Cl)c1Cl)c1ccsc1I", "note": "[Example 23]", "logP": 4.01}, {"molecule": "CON=Cc1ccc(-c2ccccc2NC(=O)c2ccsc2I)cc1F", "note": "[Example 40]", "logP": 3.79}, {"molecule": "CC(C)(C)CCc1sccc1NC(=O)c1ccsc1I", "note": "[Example 42]", "logP": 4.44}, {"molecule": "O=C(Nc1ccccc1-c1ccc(Br)cc1Cl)c1ccsc1I", "note": "[Example 21]", "logP": 4.28}, {"molecule": "O=C(Nc1ccccc1-c1ccc(Cl)c(F)c1)c1ccsc1I", "note": "[Example 9]", "logP": 3.82}, {"molecule": "O=C(Nc1ccccc1-c1ccc(Cl)cc1)c1ccsc1I", "note": "[Example 8]", "logP": 3.93}, {"molecule": "O=C(Nc1ccccc1-c1ccc(Br)c(Cl)c1)c1ccsc1I", "note": "[Example 32]", "logP": 4.21}, {"molecule": "Cc1ccc(-c2ccccc2NC(=O)c2ccsc2I)cc1F", "note": "[Example 25]", "logP": 3.89}, {"molecule": "C=C(CC(C)(C)C)c1ccccc1NC(=O)c1ccoc1I", "note": "[Example 15]", "logP": 4.49}, {"molecule": "O=C(Nc1ccccc1-c1ccc(Cl)c(F)c1)c1ccsc1Br", "note": "[Example 31]", "logP": 3.91}, {"molecule": "CC(CC(C)(C)C)c1ccccc1NC(=O)c1ccsc1I", "note": "(stereo not shown) [Example 6]", "logP": 4.42}, {"molecule": "O=C(Nc1ccccc1-c1ccc(Br)c(F)c1)c1ccsc1I", "note": "[Example 22]", "logP": 3.89}, {"molecule": "CC(CC(C)(C)C)c1ccccc1NC(=O)c1ccoc1I", "note": "(stereo not shown) [Example 7]", "logP": 4.16}, {"molecule": "O=C(Nc1ccccc1-c1ccc(C(F)(F)F)cc1Cl)c1ccsc1I", "note": "[Example 19]", "logP": 4.18}, {"molecule": "CC1CC(C)(C)c2cccc(NC(=O)c3ccsc3I)c21", "note": "(stereo not shown) [Example 39]", "logP": 4.09}, {"molecule": "O=C(Nc1ccccc1-c1ccc(Cl)cc1)c1ccoc1I", "note": "[Example 11]", "logP": 3.62}, {"molecule": "CC(C)(C)CCc1ccccc1NC(=O)c1ccsc1Br", "note": "[Example 45]", "logP": 4.30}, {"molecule": "O=C(Nc1ccccc1-c1ccc(F)c(Cl)c1)c1ccsc1I", "note": "[Example 38]", "logP": 3.79}, {"molecule": "C=C(CC(C)C)c1ccccc1NC(=O)c1ccsc1I", "note": "[Example 5]", "logP": 4.57}, {"molecule": "CC(C[Si](C)(C)C)c1ccccc1NC(=O)c1ccsc1I", "note": "(stereo not shown) [Example 17]", "logP": 4.69}, {"molecule": "CC(C)(C)CCc1ccccc1NC(=O)c1ccsc1I", "note": "[Example 20]", "logP": 4.17}, {"molecule": "C[Si](C)(C)CCc1ccccc1NC(=O)c1ccsc1I", "note": "[Example 18]", "logP": 4.43}, {"molecule": "O=C(Nc1ccccc1-c1ccc(Cl)cc1)c1ccsc1Br", "note": "[Example 29]", "logP": 3.99}, {"molecule": "CC(C)CC(C)c1sccc1NC(=O)c1ccsc1I", "note": "(stereo not shown) [Example 43]", "logP": 4.22}, {"molecule": "CC(C)CC(C)c1cc(F)ccc1NC(=O)c1ccsc1I", "note": "(stereo not shown) [Example 41]", "logP": 4.17}, {"molecule": "O=C(Nc1ccccc1-c1ccc(Br)c(F)c1)c1ccoc1I", "note": "[Example 4]", "logP": 3.58}, {"molecule": "O=C(Nc1ccccc1-c1ccc(Br)cc1)c1ccoc1I", "note": "[Example 3]", "logP": 3.72}, {"molecule": "CC(CC(C)(C)C)c1ccccc1NC(=O)c1ccsc1Br", "note": "(stereo not shown) [Example 28]", "logP": 4.51}, {"molecule": "O=C(Nc1ccc(F)cc1-c1cccc(Cl)c1F)c1ccsc1I", "note": "[Example 35]", "logP": 3.69}, {"molecule": "O=C(Nc1ccccc1-c1ccc(C(F)(F)F)cc1)c1ccsc1I", "note": "[Example 26]", "logP": 3.89}]}, {"system": "not listed separately", "experiment": "logP determination by HPLC on a reverse-phase column (EEC Directive 79/831 Annex V.A8)", "assay_type": "physicochemical", "conditions": "reverse-phase HPLC column (C 18), pH 2.3, reverse-phase column (C 18), 43° C.", "method": "as §1", "values": [{"molecule": "CC(C)CC(C)c1ccccc1NC(=O)c1ccsc1I", "note": "(stereo not shown) [Example 1, N-[2-(1,3-dimethylbutyl)phenyl]-2-iodothiophene-3-carboxamide]", "chromatographic logP": 4.14}, {"molecule": "CC(C)CC(C)c1ccccc1NC(=O)c1ccoc1I", "note": "(stereo not shown) [Example 2, N-[2-(1,3-dimethylbutyl)phenyl]-2-iodo-3-furamide]", "chromatographic logP": 3.88}]}, {"system": "Botrytis cinerea", "experiment": "Botrytis test (bean)/protective", "assay_type": "in vivo", "conditions": "48 h, protective, application rate 500 g/ha, evaluation 2 days after inoculation, read-out: Efficacy in %", "method": "[table] To produce a suitable preparation of active compound, 1 part by weight of active compound was mixed with the stated amounts of solvent and emulsifier, and the concentrate was diluted with water to the desired concentration. To test for protective activity, young plants are sprayed with the preparation of active compound at the stated application rate. After the spray coating has dried on, 2 small pieces of agar colonized by Botrytis cinerea are placed onto each leaf. The inoculated plants are placed in a dark chamber at about 20° C. and 100% relative atmospheric humidity. The size of the infected areas on the leaves is evaluated 2 days after the inoculation. 0% means an efficacy which corresponds to that of the control, whereas an efficacy of 100% means that no infection is observed.", "units": {"pest or weed control at 500 g/ha": "%"}, "values": [{"molecule": "O=C(Nc1ccccc1-c1ccc(Cl)c(F)c1)c1ccoc1I", "note": "[drawing 239]", "pest or weed control at 500 g/ha": 100}, {"molecule": "O=C(Nc1ccccc1-c1ccc(Cl)c(F)c1)c1ccsc1Br", "note": "[drawing 257]", "pest or weed control at 500 g/ha": 100}, {"molecule": "O=C(Nc1ccc(F)cc1-c1ccc(Cl)c(Cl)c1)c1ccsc1I", "note": "[drawing 247]", "pest or weed control at 500 g/ha": 100}, {"molecule": "CC(C)CC(C)c1cc(F)ccc1NC(=O)c1ccsc1I", "note": "(stereo not shown) [drawing 250]", "pest or weed control at 500 g/ha": 100}, {"molecule": "CC(CC(C)(C)C)c1ccccc1NC(=O)c1ccsc1I", "note": "(stereo not shown) [drawing 225]", "pest or weed control at 500 g/ha": 100}, {"molecule": "O=C(Nc1ccc(F)cc1-c1cccc(Cl)c1F)c1ccsc1I", "note": "[drawing 234]", "pest or weed control at 500 g/ha": 100}, {"molecule": "O=C(Nc1ccccc1-c1ccc(Br)c(F)c1)c1ccsc1I", "note": "[drawing 230]", "pest or weed control at 500 g/ha": 100}, {"molecule": "O=C(Nc1ccccc1-c1cccc(Cl)c1F)c1ccsc1I", "note": "[drawing 233]", "pest or weed control at 500 g/ha": 100}, {"molecule": "O=C(Nc1ccccc1-c1ccc(Br)c(Cl)c1)c1ccsc1I", "note": "[drawing 231]", "pest or weed control at 500 g/ha": 100}, {"molecule": "CC(C)CC(C)c1ccccc1NC(=O)c1ccsc1Br", "note": "(stereo not shown) [drawing 253]", "pest or weed control at 500 g/ha": 100}, {"molecule": "O=C(Nc1ccccc1-c1ccc(Cl)c(Cl)c1)c1ccoc1I", "note": "[drawing 238]", "pest or weed control at 500 g/ha": 100}, {"molecule": "CC(C[Si](C)(C)C)c1ccccc1NC(=O)c1ccoc1I", "note": "(stereo not shown) [drawing 244]", "pest or weed control at 500 g/ha": 100}, {"molecule": "CC(C)CC(C)c1ccccc1NC(=O)c1ccoc1I", "note": "(stereo not shown) [drawing 223]", "pest or weed control at 500 g/ha": 99}, {"molecule": "O=C(Nc1ccccc1-c1ccc(Cl)c(Cl)c1)c1ccsc1I", "note": "[drawing 242]", "pest or weed control at 500 g/ha": 100}, {"molecule": "O=C(Nc1ccncc1-c1ccc(Cl)c(Cl)c1)c1ccsc1I", "note": "[drawing 228]", "pest or weed control at 500 g/ha": 100}, {"molecule": "O=C(Nc1ccccc1-c1ccc(C(F)(F)F)cc1)c1ccsc1I", "note": "[drawing 246]", "pest or weed control at 500 g/ha": 100}, {"molecule": "O=C(Nc1ccccc1-c1ccc(C(F)(F)F)cc1Cl)c1ccsc1I", "note": "[drawing 227]", "pest or weed control at 500 g/ha": 100}, {"molecule": "O=C(Nc1ccccc1-c1ccc(Br)cc1)c1ccoc1I", "note": "[drawing 237]", "pest or weed control at 500 g/ha": 100}, {"molecule": "O=C(Nc1ccccc1-c1ccc(Cl)c(F)c1)c1ccsc1I", "note": "[drawing 243]", "pest or weed control at 500 g/ha": 100}, {"molecule": "CC1CC(C)(C)c2cccc(NC(=O)c3ccsc3I)c21", "note": "(stereo not shown) [drawing 249]", "pest or weed control at 500 g/ha": 100}, {"molecule": "CC(C)CC(C)c1ccccc1NC(=O)c1ccsc1I", "note": "(stereo not shown) [drawing 222]", "pest or weed control at 500 g/ha": 100}, {"molecule": "C[Si](C)(C)CCc1sccc1NC(=O)c1ccsc1I", "note": "[drawing 259]", "pest or weed control at 500 g/ha": 100}, {"molecule": "CC(C)(C)CCc1cc(F)ccc1NC(=O)c1ccsc1I", "note": "[drawing 235]", "pest or weed control at 500 g/ha": 100}, {"molecule": "CC(C[Si](C)(C)C)c1ccccc1NC(=O)c1ccsc1I", "note": "(stereo not shown) [drawing 245]", "pest or weed control at 500 g/ha": 100}, {"molecule": "O=C(Nc1ccccc1-c1ccc(Cl)cc1)c1ccoc1I", "note": "[drawing 236]", "pest or weed control at 500 g/ha": 100}, {"molecule": "Cc1ccc(-c2ccccc2NC(=O)c2ccsc2I)cc1F", "note": "[drawing 248]", "pest or weed control at 500 g/ha": 100}, {"molecule": "O=C(Nc1ccccc1-c1ccc(Cl)cc1)c1ccsc1I", "note": "[drawing 240]", "pest or weed control at 500 g/ha": 100}, {"molecule": "O=C(Nc1ccccc1-c1ccc(Br)cc1)c1ccsc1I", "note": "[drawing 241]", "pest or weed control at 500 g/ha": 100}, {"molecule": "O=C(Nc1ccccc1-c1cccc(Cl)c1Cl)c1ccsc1I", "note": "[drawing 232]", "pest or weed control at 500 g/ha": 100}, {"molecule": "CO/N=C/c1ccc(-c2ccccc2NC(=O)c2ccsc2I)cc1F", "note": "[drawing 251]", "pest or weed control at 500 g/ha": 100}, {"molecule": "CC(CC(C)(C)C)c1ccccc1NC(=O)c1ccsc1Br", "note": "(stereo not shown) [drawing 254]", "pest or weed control at 500 g/ha": 100}, {"molecule": "C[Si](C)(C)CCc1ccccc1NC(=O)c1ccsc1I", "note": "[drawing 226]", "pest or weed control at 500 g/ha": 100}, {"molecule": "O=C(Nc1ccccc1-c1ccc(Cl)c(Cl)c1)c1ccsc1Br", "note": "[drawing 256]", "pest or weed control at 500 g/ha": 100}, {"molecule": "O=C(Nc1ccccc1-c1ccc(Br)cc1Cl)c1ccsc1I", "note": "[drawing 229]", "pest or weed control at 500 g/ha": 100}, {"molecule": "CC(C)CC(C)c1sccc1NC(=O)c1ccsc1I", "note": "(stereo not shown) [drawing 252]", "pest or weed control at 500 g/ha": 100}, {"molecule": "CC(CC(C)(C)C)c1ccccc1NC(=O)c1ccoc1I", "note": "(stereo not shown) [drawing 224]", "pest or weed control at 500 g/ha": 100}, {"molecule": "O=C(Nc1ccccc1-c1ccc(Cl)cc1)c1ccsc1Br", "note": "[drawing 255]", "pest or weed control at 500 g/ha": 100}, {"molecule": "O=C(Nc1ccccc1-c1ccc(F)c(Cl)c1)c1ccsc1I", "note": "[drawing 258]", "pest or weed control at 500 g/ha": 99}]}]}
